This note sets out measurements from patent US7446122B2, “Substituted indole derivatives” (Cephalon, Inc., priority 2003, dated 2008).

Series [1] relates to prostate cancer cell line (LNCaP). The experiment in a line: Cell cytotoxicity, MTT assay, LNCaP. In kind it is cell-based. Conditions: Homo sapiens, 72 h, three days incubation. The protocol:
(§1) Normal prostate cells (PREC, Cambrex East Rutherford N.J.), prostate cancer cell line (LNCaP, ATCC), PBL (peripheral blood leukocytes-buffy coat San Diego Blood Bank), and primary CLL cells were incubated for one to two days in RPMI-1640 and 10% FBS (fetal bovine serum). They were plated in 96-well plates at 100,000 cells/well. Titrated concentrations of the compound to be tested were added to the culture medium. The cells were incubated three days at 37° C., 5% CO2. Viability of the cells was assayed by standard MTT assay. Each drug concentration was done in duplicate. MTT assay: 10 μl of 12 mM 3,[4,5-dimethylthiazol-2-yl]-2,5-diphenyltetrazolium bromide (MTT) (SIGMA) was added to each well. The cells were incubated at 37° C., 5% CO2 for 4 hours. 100 μl of 20% SDS, 0.015M HCl was added to each well and the cells were incubated overnight. The plates were read at absorbance 595 nm.
A general note: Tetrazolium dyes change colour on reduction, which living cells bring about.

For series [2], the target named is T1, COX-1 (Homo sapiens, UniProt P23219).
T1 construct: endogenous in cells; host or cells: human platelets
T1 sequence (P23219 24-599): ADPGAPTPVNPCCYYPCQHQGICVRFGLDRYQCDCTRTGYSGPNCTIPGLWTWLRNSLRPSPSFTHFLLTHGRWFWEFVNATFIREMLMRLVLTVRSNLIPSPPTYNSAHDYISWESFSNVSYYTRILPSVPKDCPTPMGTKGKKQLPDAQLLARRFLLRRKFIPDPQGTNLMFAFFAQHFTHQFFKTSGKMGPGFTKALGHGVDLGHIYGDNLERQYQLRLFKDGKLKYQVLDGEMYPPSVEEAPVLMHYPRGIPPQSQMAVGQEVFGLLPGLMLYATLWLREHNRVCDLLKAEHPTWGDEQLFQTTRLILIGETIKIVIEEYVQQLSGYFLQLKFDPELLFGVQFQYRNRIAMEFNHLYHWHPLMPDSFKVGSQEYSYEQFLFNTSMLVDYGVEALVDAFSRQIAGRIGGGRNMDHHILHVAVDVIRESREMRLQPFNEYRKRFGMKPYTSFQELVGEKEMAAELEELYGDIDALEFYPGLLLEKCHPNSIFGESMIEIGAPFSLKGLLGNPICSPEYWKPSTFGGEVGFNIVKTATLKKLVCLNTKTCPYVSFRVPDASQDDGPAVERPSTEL
The experiment in a line: Cox-1 assay: PGE2 formation in human platelets. The series is classed as cell-based. The procedure:
Test compound and/or vehicle is incubated with human platelets (10^8/ml) containing the phospholipase inhibitor MLnFP (100 μM) for 15 minutes at 37° C. Arachidonic acid (100 μM) is then added for a further 15 minute incubation period. The reaction is stopped by addition of 1 N HCl and neutralized with 1N NaOH. PGE2 levels in the supernatant are determined using the Amersham EIA kit. […]

In series [3] the target is T2, Cyclooxygenase-2 (human recombinant, expressed in Sf9 cell) (Homo sapiens, UniProt P35354).
T2 construct: purchased Cayman 60122; host or cells: Sf9 cell
T2 sequence (P35354 18-604): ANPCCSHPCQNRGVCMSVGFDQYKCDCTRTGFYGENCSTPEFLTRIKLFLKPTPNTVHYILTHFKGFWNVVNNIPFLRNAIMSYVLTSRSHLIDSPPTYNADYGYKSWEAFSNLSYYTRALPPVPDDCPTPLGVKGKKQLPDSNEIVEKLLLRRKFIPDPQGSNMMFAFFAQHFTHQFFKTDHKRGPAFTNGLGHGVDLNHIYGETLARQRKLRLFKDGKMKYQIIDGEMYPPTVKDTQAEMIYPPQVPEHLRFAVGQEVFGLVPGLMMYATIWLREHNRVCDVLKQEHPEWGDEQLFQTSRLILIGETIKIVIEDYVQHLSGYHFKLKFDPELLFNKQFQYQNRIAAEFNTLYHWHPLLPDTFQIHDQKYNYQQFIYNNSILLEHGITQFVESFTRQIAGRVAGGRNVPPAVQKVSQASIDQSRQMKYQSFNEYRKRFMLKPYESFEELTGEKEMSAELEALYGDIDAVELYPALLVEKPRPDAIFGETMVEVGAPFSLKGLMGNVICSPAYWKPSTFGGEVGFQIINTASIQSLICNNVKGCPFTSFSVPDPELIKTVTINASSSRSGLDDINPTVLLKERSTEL
The experiment in a line: Cox-2 assay: human recombinant cyclooxygenase-2, PGE2 by EIA. The series is classed as biochemical. Particulars: human recombinant enzyme. The procedure:
Test compound and/or vehicle is pre-incubated with 0.11 U cyclooxygenase-2, 1 mM reduced glutathione (GSH), 500 μM phenol and 1 μM hematin for 15 minutes at 37° C. The reaction is initiated by addition of 0.3 μM arachidonic acid as substrate in Tris-HCl pH 7.7 and terminated after a 5 minute incubation at 37° C. by addition of 1N HCl. Following centrifugation, substrate conversion to PGE2 is measured by an Amersham EIA kit. Compounds are screened at 10 μM. […] J. Physiol.

In series [4] the test system is Normal prostate cells (PREC). The experiment in a line: Cell cytotoxicity, MTT assay, PREC. The series is classed as cell-based. Conditions: Homo sapiens, 72 h, three days incubation. The procedure:
as §1

Series [5] deals with primary CLL cells. The experiment in a line: Cell cytotoxicity, MTT assay, primary CLL cells. The series is classed as cell-based. Particulars: 72 h, three days incubation. The procedure:
as §1

The test system of series [6] is PBL (peripheral blood leukocytes). Briefly: Cell cytotoxicity, MTT assay, PBL. In kind it is cell-based. Conditions: Leukocyte, 72 h, three days incubation. The procedure: as §1
For series [7], the system named is cyclin D1 transcripts in LNCaP cells. Briefly: Cyclin D1 transcript expression by quantitative PCR in LNCaP cells. The series is classed as cell-based. Conditions: 24 hours, compound 42 (50 μM), compound 36 (100 μM), compound 1 (20 μM), normalized to 18s, FIG. 2. The procedure: Cyclin D1 Transcript Expression Levels as measured by quantitative PCR assay. LNCaP cells were cultured at 37° C., 5% CO2 for 24 hours untreated or in the presence of R-etodolac (200 μM), compound 42 (50 μM), compound 36 (100 μM), or compound 1 (20 μM) (see Table II for structures). Cells were harvested by trypsinization, washed with PBS, and stored at −80° C. Total cellular RNA was prepared from cell pellets using the RNEasy® Mini kit (Qiagen, Inc., Valencia, Calif.). RNA was quantified by spectrophotometer. Approximately 2 μg of RNA was used to prepare cDNA using the ThermoScript™ RT-PCR System (Invitrogen, Carlsbad, Calif.).
The levels of cyclin D1 transcripts in the cDNA samples were measured using a quantitative PCR (qPCR) assay specific for cyclin D1. The cyclin D1 transcript was amplified using the following primer pair:
The cyclin D1 primers are described in a manuscript from Takayasu et al. (2001 Clin. Cancer Res. 7:901-908). All assays were performed in duplicate. All qPCR assays were performed and analyzed using a Bio-Rad iCycler (Bio-Rad, Hercules, Calif.). The levels of cyclin D1 transcripts were normalized for total input cDNA by performing a separate assay to detect the levels of a housekeeping gene (18s) using the following primer pair:
The samples were normalized for 18s transcript levels using the method of Livak et al. (2001 Methods 25:402-408). The level of cyclin D1 transcripts in the control sample was set to 1. FIG. 2 represents the averaged normalized cyclin D1 transcripts±standard deviation for three independent experiments (two independent experiments for compound 1).

Series [8] deals with Cyclin D1 protein in LNCaP cells. Briefly: Western blot of Cyclin D1 protein in LNCaP cell lysates. The series is classed as cell-based. Conditions: LNCaP cell lysates from treated cells.
The test system of series [9] is Daudi human Burkitt Lymphoma derived tumors. The experiment in a line: Daudi lymphoma murine xenograft model, efficacy. The series is classed as in vivo, male SCID mice. The procedure: Male SCID mice, 6-8 weeks of age, obtained from Simonsen Laboratories, Inc. (Gilroy, Calif.) were housed in groups of five.
The Daudi human Burkitt Lymphoma cells were obtained from American Type Culture Collection and were inoculated subcutaneously (1.0×10^7 cells/mouse) on the flanks of SCID mice. After the tumors reached approximately 100 mm^3 treatment was initiated.
Body weights and tumor volume of all mice were measured and recorded twice weekly. Tumors were measured in three dimensions and volume calculated using the formula: […]. Time for the tumors (days) to grow to 4× and 8× the initial volume at dosing were assessed. Study compounds were administered at 125 or 250 mg/kg/day (M-F) via oral gavage until the end of the study.
The efficacy of chlorambucil (2 and 3 mg/kg/d), (R-etodoalc) (400 mg/kg/d) and compound 47 (250 mg/kg/d), compound 26 (250 mg/kg/d), and compound 1 (125 mg/kg/d) against Daudi derived tumors in male SCID mice were studied. R-etodolac and compounds 1, 26 and 47 were prepared in sesame oil. Both chlorambucil (ip, 0.1 ml) and compounds of the invention (per os [p.o.], 0.31 ml) were dosed daily (Monday to Friday) for two weeks. SDX-101 (0.31 ml) was dosed p.o. daily until the end of the study. […] However, all treated mice recovered after Day 2 and maintained their weights. There was no body weight loss observed in other treatment groups. At termination of the study, the control group mean tumor volume was 1583 mm^3. The mean tumor volume of chlorambucil treated groups were 864 and 766 mm^3 with 2 and 3 mg/kg/d chlorambucil treatment, respectively. The mean tumor volume of R-etodolac and compounds 1, […] and 47 were 802, 996, 1011, and 1157 mm^3 with compounds 47, 36, 1 and R-etodolac treatment, respectively. […] At termination of the study, tumor samples along with liver, kidney, and spleen samples from each group were collected and fixed in 10% buffered formalin for histopathology.

[10] abbreviates: compounds are screened at 10 μM.

In turn, `CCC1(CCO)OCCc2c1[nH]c1ccc(C)cc21` (centres unmarked) [Compound 24, 2-(1-ETHYL-6-METHYL-1,3,4,9-TETRAHYDRO-PYRANO[3,4-b]INDOL-1-YL)-ETHANOL] displayed a melting point of 114 to 115 °C. The compound further displayed an IC50 in [1] of 80 µM.

`CCC1(CCO)OCCc2c1[nH]c1c(C)cccc21` (centres unmarked) [Compound 25, 2-(1-ETHYL-8-METHYL-1,3,4,9-TETRAHYDRO-PYRANO[3,4-b]INDOL-1-YL)-ETHANOL]: the melting point came to 68 °C. This compound came in with an IC50 in series [1] of 60 µM.

On to `CCc1cc(-c2ccccc2)cc2c3c([nH]c12)C(CC)(CCO)OCC3` (centres unmarked) [Compound 1, 2-(1,8-DIETHYL-6-PHENYL-1,3,4,9-TETRAHYDRO-PYRANO[3,4-b]INDOL-1-YL)-ETHANOL], for which the IC50 is less than 10 µM in [2] (arachidonic acid 100 μM, PGE2); less than 10 µM in [3] (0.3 μM arachidonic acid, PGE2); 14 µM in series [1]; 53 µM in series [4]; 72 µM in series [5]; 76 µM in series [6]. Moreover, the inhibition at 10 µM in [2] (setting [10]) was determined as 96%; in series [3] (setting [10]) it was 100%. Further, the “cyclin D1 mRNA expression” value in [7] is listed as “inhibit cyclin D1 mRNA expression”. The “Cyclin D1 protein expression (Western blot)” value in series [8] is on record as “reduced Cyclin D1 protein expression”. Besides, the “mean tumor volume at termination of the study” value in series [9] (p.o. in sesame oil, compound 47 250, compound 36 (printed 26) 250, compound 1 125, R-etodolac 400 mg/kg/d, control 1583 mm^3) is recorded as 1011 mm^3. In addition, the “4× Growth” value in series [9] (time for the tumors to grow to 4× the initial volume at dosing, control 8.9 d) was found to be 15.8 days. Also, the “8× Growth” value in series [9] (time for the tumors to grow to 8× the initial volume at dosing, control 14.5 d) amounted to 21.1 days.

The term IC50 denotes the concentration that gives 50% inhibition. As usually defined, the melting point is the temperature, or range, at which the solid turns liquid. As a reminder, the inhibition is the relative decrease from the control value, in per cent.
